Laboratory results reported in US20250170114A1, “METHODS OF TREATMENT USING T-TYPE CALCIUM CHANNEL MODULATORS” (Praxis Precision Medicines, Inc., priority 2022, published 2025).

Key:
participants with ET [1] = assay: Phase 2 trial: Clinical Global Impression-Improvement (CGI-I); format: in vivo, human
Source text: The Clinical Global Impression-Improvement (CGI-I) (Guy 1976) assesses the clinician's impression of the participant's functioning prior to and after initiating study medication. The clinician should use his/her total clinical experience with this patient population and rate the current severity of the participant's essential tremor symptoms on a 7-point scale from 1 (Normal, not at all ill) to 7 (Among the most extremely ill patients). Accordingly, in some embodiments, the methods of the present invention result in a decrease in CGI-I score compared to baseline, e.g., prior to treatment. Key safety measures included clinical laboratory evaluations, 12-lead ECG, C-SSRS, and vital signs. Key efficacy assessments included the TETRAS Performance subscale, TETRAS Upper Limb using accelerometry, CGI, and PGI-C. Blood samples were obtained for the determination of study drug plasma concentrations using a validated bioanalytical method and may also be used for method development and/or metabolite characterization. In both phases, key safety measures included clinical laboratory evaluations, 12-lead ECG, C-SSRS, and vital signs. Key efficacy assessments included the TETRAS Performance subscale, TETRAS Upper Limb using accelerometry, CGI, PGI-C, TETRAS ADL Subscale, QUEST, BDI-II, and BAI. Blood samples were obtained for the determination of study drug and metabolite plasma concentrations.

[2] = system: harmaline-induced motor impairment in male SD rats; assay: Wire grip test with harmaline in SD rats; format: in vivo, rat; conditions: harmaline 30 mg/kg, dose of 1, 3 and 10 mg/kg
Source text: Each of six groups of male SD rats were subjected to a tremor assessment, followed by three ADL-like measures including open field test, rotarod test, and wire grip test after receiving doses of either vehicle, Formula (I), or propranolol, followed by either saline or harmaline, as outlined below in Table 22 below.
Fifteen minutes after the rotarod test, rats were subjected to a wire grip test using an 80 cm long and 7 mm in diameter wire placed at a height of 50 cm.

participants with ET [3] = assay: Phase 2 trial Part B: Beck Depression Inventory (BDI-II); format: in vivo, human
Experimental: The Beck Depression Inventory (BDI-II) is a list of 21 common symptoms of depression (Beck et al 1996). Each item is scored on a 4-point Likert scale (range of scores is 0 through 3). The time frame for assessment is the […] or since the last assessment. The BDI-II is divided into 2 subscales: Affective and Somatic. The subscale scores are calculated as the sum of the items comprising each subscale. The total score is calculated as the sum of all 21 items and ranges from 0 to 63. A total score of 0 to 13 indicates minimal depressive symptoms. A total score of 14 to 19 indicates mild depressive symptoms. A total score of 20 to 28 indicates moderate depressive symptoms. A total score of 29 to 63 indicates severe depressive symptoms. The BDI-II is assessed at screening to exclude participants with moderate to severe depressive symptoms. […] In both phases, key safety measures included clinical laboratory evaluations, 12-lead ECG, C-SSRS, and vital signs. Key efficacy assessments included the TETRAS Performance subscale, TETRAS Upper Limb using accelerometry, CGI, PGI-C, TETRAS ADL Subscale, QUEST, BDI-II, and BAI. Blood samples were obtained for the determination of study drug and metabolite plasma concentrations.

[4] = Part B OLT (FAS), Day 7, n = 13
[5] = Part B OLT (FAS), Day 21, n = 12
[6] = Part B OLT (FAS), Day 42, n = 10
[7] = Part B RWD (RWAS), Day 56, Study drug, n = 6
[8] = Part B RWD (RWAS), Day 70, Study drug, n = 5

In the case of `CC(C)(C)NC(=O)CN1CCC(CNC(=O)c2cc(F)cc(Cl)c2)CC1.Cl` [Study drug], the “CGI-I Score 5 minimally worse” value (participants with ET [1]; Part B OLT (FAS), Day 7, n = 12) is reported as 1 n (%), the “CGI-I Score 5 minimally worse” value (participants with ET [1]; Part B RWD (RWAS), Day 70, study drug group, n = 5, vs randomization baseline) is reported as 1 n (%) and the “latency to fall in wire grip test vs vehicle and harmaline only” value ([2]; listed as Formula (I)) is reported as “significantly attenuated”. The “latency to fall in wire grip test vs vehicle and harmaline only” value ([2]; listed as compound of Formula (I)) was “significantly attenuated decrease in fall off latency”, the “BDI-II Depressive Symptoms Mild (14-19)” value (participants with ET [3]; [4]) was 1 n (%) and the “BDI-II Depressive Symptoms Minimal (0-13)” value (participants with ET [3]; [4]) was 12 n (%). For the same molecule, the “BDI-II Depressive Symptoms Moderate (20-28)” value (participants with ET [3]; [4]) was 0 n (%), the “BDI-II Depressive Symptoms Severe (29-63)” value (participants with ET [3]; [4]) was 0 n (%) and the “BDI-II Depressive Symptoms Mild (14-19)” value (participants with ET [3]; [5]) was 1 n (%). The “BDI-II Depressive Symptoms Minimal (0-13)” value (participants with ET [3]; [5]) was 11 n (%), the “BDI-II Depressive Symptoms Moderate (20-28)” value (participants with ET [3]; [5]) was 0 n (%) and the “BDI-II Depressive Symptoms Severe (29-63)” value (participants with ET [3]; [5]) was 0 n (%). The “BDI-II Depressive Symptoms Mild (14-19)” value (participants with ET [3]; [6]) was 0 n (%), the “BDI-II Depressive Symptoms Minimal (0-13)” value (participants with ET [3]; [6]) was 10 n (%) and the “BDI-II Depressive Symptoms Moderate (20-28)” value (participants with ET [3]; [6]) was 0 n (%). The “BDI-II Depressive Symptoms Severe (29-63)” value (participants with ET [3]; [6]) was 0 n (%), the “BDI-II Depressive Symptoms Mild (14-19)” value (participants with ET [3]; [7]) was 0 n (%) and the “BDI-II Depressive Symptoms Minimal (0-13)” value (participants with ET [3]; [7]) was 6 n (%). The “BDI-II Depressive Symptoms Moderate (20-28)” value (participants with ET [3]; [7]) was 0 n (%), the “BDI-II Depressive Symptoms Severe (29-63)” value (participants with ET [3]; [7]) was 0 n (%) and the “BDI-II Depressive Symptoms Mild (14-19)” value (participants with ET [3]; [8]) was 1 n (%). For the same molecule, the “BDI-II Depressive Symptoms Minimal (0-13)” value (participants with ET [3]; [8]) was 4 n (%), the “BDI-II Depressive Symptoms Moderate (20-28)” value (participants with ET [3]; [8]) was 0 n (%) and the “BDI-II Depressive Symptoms Severe (29-63)” value (participants with ET [3]; [8]) was 0 n (%). The “change in BDI-II scores” value (participants with ET [3]; Part B, pre-dose baseline to Day 70) was “no clinically meaningful change over time”.
